Laboratory results reported in US4764505A, “Skin treatment composition” (Shiseido Company Ltd., priority 1985, dated 1988).
Where two headings read alike, the source gives them in different places.

Legend:
[1] = Stability with time in 0.1N aqueous sodium hydroxide (absorbancy at 420 nm, FIG. 1); format: physicochemical; conditions: 1 mM in 0.1N aqueous sodium hydroxide, 37° C.
Protocol: Also in FIG. 1, the changes of the absorbancy at 420 nm are shown with the lapse of time.
Hydroquinone, arbutin, or hydroquinone monocaprylate was dissolved at a concentration of 1 mM in a 0.1N aqueous sodium hydroxide solution. The changes in the color of the resultant solutions with the lapse of time at 37° C. were monitored by measuring the absorbancy at 420 nm.

[2] = Stability of neutral cream on storage at 37° C. (discoloration); format: physicochemical; conditions: for degree of discoloration: neutral cream of Example 8 (or arbutin replaced), 37° C.
Protocol: These three samples were stored at a temperature of 37° C. for 1 month, 2 months, and 3 months.

skin [3] = conditions: guinea pig, in vivo
skin [4] = conditions: guinea pig, in vivo; remark: listed apart in the source
tyrosinase = test system: tyrosinase
Protocol: The depigmenting effects of arbutin and hydroquinone were evaluated by using the inhibition rate of tyrosinase, i.e. polyphenol oxidase for forming melanin. This evaluation method is generally accepted in the art.
The tyrosinase inhibition rate was determined by using DOPA as a substrate as follows:
Preparation of Sample Solution
Aqueous sample solutions having a concentration of hydroquinone or arbutin of 150, 300, or 600 mM were prepared.
Preparation of Substrate Solution
A substrate solution was prepared by dissolving 5 mg of DOPA in 10 ml of distilled water.
Preparation of Enzyme Solution
An enzyme solution was prepared by dissolving 10 mg of tyrosinase (2000 I.U./mg, Sigma Chemical Co.) in 10 ml of distilled water.
A 0.5 ml amount of the substrate solution and 0.9 ml of 1/15M phosphate buffer solution were added to 0.05 ml of the sample. The mixture was incubated at 25° C. for 5 minutes. Then, 0.05 ml of the enzyme solution, which was previously incubated at 25° C. for 5 minutes, was added to the above-incubated sample mixture. The resultant mixture was allowed to react for 1.5 minutes. The absorbancy of the resultant reaction mixture was measured at 475 nm. The tyrosinase inhibition rate was calculated from the following equation: [formula] wherein T: Absorbancy in the case of the inhibitor being added;
T': Absorbancy in the case of the inhibitor being added but the substrate not being added
C: Absorbancy in the case of the inhibitor not being added
C': Absorbancy in the case of neither the inhibitor nor the substrate being added

In the case of CCCCCCCC(=O)Oc1ccc(O)cc1 [Hydroquinone monocaprylate, hydroquinone monocaprylate], the “change in color of the solution with lapse of time” value (shortened to “change in color of the solution”) [1] was “the stability was improved moderate”, the degree of discoloration ([2]; 1 month) was “+” and the degree of discoloration ([2]; 2 months) was “+”. For the same compound, the degree of discoloration ([2]; 3 months) was “-”, the “irritation (in words)” value (skin [3]) was “strong irritation” and the “Results (incidence, animals responding/tested)” value (skin [4]) was 5/5. For the same compound, the “Results (score, erythema and edema criteria)” value (skin [4]) was 3.4 and the “order of the contact sensitization potential” value (shortened to “order”) (skin [4]) was “Hydroquinone monocaprylate>Hydroquinone>>Arbutin”.
For Oc1ccc(O)cc1 [Hydroquinone, hydroquinone], the “change in color of the solution” value [1] was “rapidly colored brown”, the degree of discoloration ([2]; 1 month) was “-” and the “Inhibition Rate (%)” value (tyrosinase; concentration 5 mM) was 46.5%. For the same compound, the “Inhibition Rate (%)” value (tyrosinase; concentration 10 mM) was 51.6%, the “Inhibition Rate (%)” value (tyrosinase; concentration 20 mM) was 59.0% and the “Results (incidence, animals responding/tested)” value (skin [4]) was 5/5. The “Results (score, erythema and edema criteria)” value (skin [4]) was 2.6 and the “order” value (skin [4]) was “Hydroquinone monocaprylate>Hydroquinone>>Arbutin”.
With OC[C@H]1O[C@@H](Oc2ccc(O)cc2)[C@H](O)[C@@H](O)[C@@H]1O [Arbutin, hydroquinone-β-D-glucoside] the “change in color of the solution” value [1] was “the change of appearance was not observed”, the “stability with the lapse of time (in words)” value ([2]; Table 4 conclusion) was “excellent” and the degree of discoloration ([2]; 1 month) was “++”. The degree of discoloration ([2]; 2 months) was “++”, the degree of discoloration ([2]; 3 months) was “++” and the “irritation (in words)” value (skin [3]) was “no irritation”. For the same compound, the “number of the guinea pigs causing the irritation” value (skin [3]) was 0, the “Inhibition Rate (%)” value (tyrosinase; concentration 5 mM) was 55.3% and the “Inhibition Rate (%)” value (tyrosinase; concentration 10 mM) was 62.3%. The “Inhibition Rate (%)” value (tyrosinase; concentration 20 mM) was 67.1%, the “inhibition effect compared with hydroquinone” value (tyrosinase; tyrosinase, Table 1 conclusion in words) was “superior to that of hydroquinone” and the “Results (incidence, animals responding/tested)” value (skin [4]) was 0/1. For the same compound, the “Results (score, erythema and edema criteria)” value (skin [4]) was 0, the “contact sensitivity compared with other depigmenting agents” value (skin [4]) was “remarkably low compared with that of other depigmenting agents” and the “order” value (skin [4]) was “Hydroquinone monocaprylate>Hydroquinone>>Arbutin”.
